Values quoted from earlier work in article PMC8748714, “Dynamics of GLP-1R peptide agonist engagement are correlated with kinetics of G protein activation” (Nature Communications, 2022).

Legend:
GLP-1R [1] = tested on: GLP-1R
Description: Despite this conservation, these peptides induce distinct signalling profiles and have different mechanisms for receptor interaction. […] While there was also conservation in the TM bundle interactions when engaged by the four peptides, differences were identified in how each peptide uses different networks to facilitate G protein coupling. This transmission of information across the TM bundle also enables G ...

GLP-1R [2] = settings: vs full-length exendin-4

In the case of “GLP-1 (Ala2Gly): GLP-1 with Ala2Gly substitution”, the “effect of residue 2 substitution on affinity” value (GLP-1R [1]; ref 31-33 (chimera ref 32)) is listed as “reduced affinity”.

In the case of “exendin(9–39): N-terminally truncated exendin-4 lacking the first 8 amino acids”, the “lower affinity than corresponding full-length peptide” value (GLP-1R [1]; exendin(9–39) vs exendin-4, GLP-1(15–36) vs GLP-1) is given as 10–30 fold.

In the case of “truncation of the first two residues of exendin-4: exendin-4 truncated by the first two residues”, the “decrease in potency for cAMP signalling on truncation of first two residues” value (GLP-1R [2]) is listed as ~ 200 fold and the “affinity on truncation of first two residues” value (GLP-1R [1]; vs full-length exendin-4) is listed as “does not significantly alter its affinity”.
